Values of other authors, collected in patent US20240016859A1, “MICROENCAPSULATED AND CHROMOSOME INTEGRATED COMPOSITIONS FOR L-DOPA MICROBIOME THERAPY” (Iowa State University Research Foundation, Inc., priority 2020, published 2024).

- solubility in water: slightly soluble
SMILES: N[C@@H](Cc1ccc(O)c(O)c1)C(=O)O [Levodopa, (−)-L-a-amino-b-(3,4-dihydroxybenzene)propanoic acid]
